Reference: patent US8288375B2, “Fungicidal bicyclic pyrazoles” (E.I. du Pont de Nemours and Company, priority 2007, dated 2012)
Marks after values point to notes of the source that are not given here.

Tests used:
Type in all cases: in vivo
Septoria nodorum = assay: Test D: wheat glume blotch, test suspension sprayed on wheat seedlings, disease rating; conditions: 200 ppm test suspension; for pest or weed control at 200 ppm: Parastagonospora nodorum, 216 h
Pythium aphanidermatum = assay: Test L: bluegrass pythium blight, test suspension sprayed on bluegrass seedlings, disease rating;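 note: 200 ppm unless marked * meaning 40 ppm or ** meaning 10 ppm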
Fusarium graminearum = assay: whole plant or invertebrate; conditions: for pest or weed control at 40 ppm: Fusarium graminearum, in Triticum aestivum, 192 h, read-out: Test C disease control rating
Rhizoctonia oryzae = assay: Test I: turf brown patch, test suspension sprayed on creeping bent grass seedlings, disease rating; conditions: 200 ppm test suspension
[1] = test system: Erysiphe graminis f. sp. tritici; assay: Test A: wheat powdery mildew, test suspension sprayed on wheat seedlings, disease rating; conditions: 200 ppm test suspension, 100 = 100% disease control, 0 = no control; for pest or weed control at 200 ppm: Blumeria graminis, 192 h
Septoria tritici = assay: Test E: wheat leaf blotch, test suspension sprayed on wheat seedlings, disease rating;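 note: 200 ppm unless marked * meaning 40 ppm or ** meaning 10 ppm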
[2] = test system: Puccinia recondite f sp. tritici; assay: Test B: wheat leaf rust, test suspension sprayed on wheat seedlings, disease rating; conditions: for pest or weed control at 40 ppm: Puccinia, 192 h;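 for all read-outs here: 200 ppm unless marked * meaning 40 ppm or ** meaning 10 ppm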
Botrytis cinerea = assay: Test H: tomato Botrytis, test suspension sprayed on tomato seedlings, disease rating; conditions: 200 ppm test suspension
Phytophthora infestans = assay: whole plant or invertebrate
Alternaria solani = assay: Test G: tomato early blight, test suspension sprayed on seedlings, disease rating;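 note: 200 ppm unless marked * meaning 40 ppm or ** meaning 10 ppm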
[3] = test system: Colletotrichum orbiculare; assay: Test F: cucumber Colletotrichum anthracnose, test suspension sprayed on cucumber seedlings, disease rating
[4] = Phytophthora infestans, in Solanum lycopersicum, 120 h, read-out: Test J disease control rating

SMILES	Test D disease control rating (Septoria nodorum) [%]	Test I disease control rating (Rhizoctonia oryzae) [%]	Test A disease control rating [1] [%]	Test H disease control rating (Botrytis cinerea) [%]	Test G disease control rating (Alternaria solani; 40 ppm test suspension (*))	Test F disease control rating ([3]; 200 ppm test suspension) [%]	Test L disease control rating (Pythium aphanidermatum; 40 ppm test suspension (*))	Test C disease control rating (Fusarium graminearum; 40 ppm test suspension (*))	Test E disease control rating (Septoria tritici; 40 ppm test suspension (*))	Test B disease control rating ([2]; 40 ppm test suspension (*))	Test J disease control rating (Phytophthora infestans; 40 ppm test suspension (*))	other results
CC(CO)Nc1nccc(-c2c(-c3ccc(F)cc3)nn3c2CCCC3)n1 (stereo not drawn) [Compound 5, 2-[[4-[2-(4-fluorophenyl)-4,5,6,7-tetrahydropyrazolo[5,1-a]pyridin-3-yl]-2-pyrimidinyl]amino]-1-propanol]	97	0	96	99	98* %	99	–	–	–	–	–	Test L disease control rating (Pythium aphanidermatum; 200 ppm test suspension): 100%; Test C disease control rating (Fusarium graminearum; 200 ppm test suspension): 100%; Test E disease control rating (Septoria tritici; 200 ppm test suspension): 97%; Test B disease control rating ([2]; 200 ppm test suspension): 100%; Test J disease control rating (Phytophthora infestans; 200 ppm test suspension): 99%
c1ccc(-c2nn3c(c2-c2ccnc(NC4CC4)n2)CCCC3)cc1 [Compound 27, N-cyclopropyl-4-(4,5,6,7-tetrahydro-2-phenylpyrazolo[1,5-a]pyridin-3-yl)-2-pyrimidinamine]	–	–	–	–	–	–	–	–	–	–	–	pest or weed control at 200 ppm (Septoria nodorum): 98%; pest or weed control at 200 ppm (Pythium aphanidermatum; Pythium aphanidermatum, 120 h, 200 ppm test suspension): 98%; pest or weed control at 40 ppm (Fusarium graminearum): 99%; pest or weed control at 200 ppm [1]: 96%; pest or weed control at 200 ppm (Septoria tritici; Zymoseptoria tritici, 504 h, 200 ppm test suspension): 97%; pest or weed control at 40 ppm ([2]; 40 ppm test suspension (*)): 95%; pest or weed control at 200 ppm (Phytophthora infestans; [4]): 97%; pest or weed control at 10 ppm (Alternaria solani; Alternaria solani, 168 h, 10 ppm test suspension (**)): 95%; pest or weed control at 10 ppm ([3]; Colletotrichum orbiculare, 144 h, 10 ppm test suspension (**)): 66%
CC(=O)N1CCn2nc(-c3ccc(F)cc3)c(-c3ccnc(NC(C)C)n3)c2C1 [Compound 130]	97	0	86	34	58* %	0	100* %	0* %	97* %	92* %	100* %	–
CC(C)Nc1nccc(-c2c(-c3ccc(F)cc3)nn3c2CNCC3)n1.Cl [Compound 133]	0	0	0	0	0* %	98	99* %	42* %	0* %	19* %	73* %	–
CN1CCCc2c(-c3ccnc(NC4CC4)n3)c(-c3ccc(F)cc3)nn21 [Compound 135, N-cyclopropyl-4-[2-(4-fluorophenyl)-4,5,6,7-tetrahydro-7-methylpyrazolo[1,5-b]pyridazin-3-yl]-2-pyrimidinamine]	–	–	–	–	–	–	–	–	–	–	–	pest or weed control at 200 ppm (Septoria nodorum): 89%; pest or weed control at 40 ppm (Fusarium graminearum): 84%; pest or weed control at 200 ppm (Rhizoctonia oryzae; Waitea circinata, in Agrostis stolonifera, 120 h): 0%; pest or weed control at 200 ppm [1]: 95%; pest or weed control at 40 ppm (Septoria tritici; Zymoseptoria tritici, 504 h, 40 ppm test suspension (*)): 90%; pest or weed control at 40 ppm ([2]; 40 ppm test suspension (*)): 61%; pest or weed control at 200 ppm (Botrytis cinerea; Botrytis cinerea, 120 h): 70%; pest or weed control at 40 ppm (Phytophthora infestans; [4]): 70%; pest or weed control at 40 ppm (Alternaria solani; Alternaria solani, 168 h, 40 ppm test suspension (*)): 99%; pest or weed control at 200 ppm ([3]; Colletotrichum orbiculare, 144 h, 200 ppm test suspension): 99%
CC(=O)N1CCCc2c(-c3ccnc(NC4CCOCC4)n3)c(-c3ccc(F)cc3)nn21 [Compound 139]	99	40	73	0	99* %	–	100* %	95* %	29* %	90* %	93* %	–
CC(CN1C(=O)c2ccccc2C1=O)Nc1nccc(-c2c(-c3ccc(F)cc3)nn3c2CCCC3)n1 (stereo not drawn) [compound 71]	64	–	0	0	0* %	0	97* %	0* %	33* %	0* %	9* %	–
CC(CN(C)C)Nc1nccc(-c2c(-c3ccc(F)cc3)nn3c2CCCC3)n1 (stereo not drawn) [compound 77]	49	0	82	29	0* %	0	0* %	92* %	0* %	–	40* %	–
Fc1ccc(-c2nn3c(c2-c2ccnc(NCc4ccco4)n2)CCCC3)cc1 [compound 78]	69	0	58	0	0* %	0	0* %	99* %	60* %	–	17* %	–
Cc1ccc(CNc2nccc(-c3c(-c4ccc(F)cc4)nn4c3CCCC4)n2)o1 [compound 79]	69	0	76	0	0* %	0	0* %	99* %	93* %	–	0* %	–
Fc1ccc(-c2nn3c(c2-c2ccnc(NCC4CCOCC4)n2)CCCC3)cc1 [compound 80]	82	0	82	44	68* %	0	0* %	98* %	93* %	–	33* %	–
CC(C)Nc1nccc(-c2c(-c3ccc(F)cc3)nn3c2COCC3)n1.Cl [compound 128]	99	–	0	89	99* %	99	100* %	99* %	94* %	96* %	100* %	–
Fc1ccc(-c2nn3c(c2-c2ccnc(NC4CCOCC4)n2)COCC3)cc1 [compound 129]	99	53	0	84	95* %	–	100* %	100* %	81* %	98* %	95* %	–
